The nature of this series: Solubility of the compound in water at room temperature. To be noted: room temperature (25° C.). The format is physicochemical. The procedure: 23.5 g of perfluoro(3-dibutylaminopropionic acid) was neutralized with 1.5 g of calcium hydroxide in a methanol/water mixed solution. The precipitated crystals were separated by filtration, and dried at 100° C., whereby 23.5 g of perfluoro(3-dibutylaminopropionic acid) calcium represented by the following formula (376) was obtained (yield of 97%). The solubility of the present compound in water at room temperature (25° C.) was 2 [g/100 g-H2O].
15.0 g of perfluoro(3-dibutylaminopropionic acid) obtained in the same manner as in Synthesis Example 1 was neutralized with 1.2 g of magnesium hydroxide in a methanol/water mixed solution. Next, the precipitated crystals were separated by filtration, and by extracting with methanol, a magnesium salt was obtained. The methanol was distilled off, whereby 14.4 g of perfluoro(3-dibutylaminopropionic acid) magnesium represented by the following formula (379) was obtained (yield of 94%). The solubility of the present compound in water at room temperature was 0.009 [g/100 g-H2O].
15.0 g of perfluoro(3-dibutylaminopropionic acid) obtained in the same manner as in Synthesis Example 1 was neutralized with 4.0 g of barium hydroxide octahydrate in a methanol/water mixed solution. […]

As for `O=C(O)C(F)(F)C(F)(F)N(C(F)(F)C(F)(F)C(F)(F)C(F)(F)F)C(F)(F)C(F)(F)C(F)(F)C(F)(F)F.[Mg]` [Synthesis Example 4, perfluoro(3-dibutylaminopropionic acid) magnesium], the “solubility of the present compound in water” value is 0.009 g/100 g-H2O.

As for `O=C(O)C(F)(F)C(F)(F)N(C(F)(F)C(F)(F)C(F)(F)C(F)(F)F)C(F)(F)C(F)(F)C(F)(F)C(F)(F)F.[Ba]` [Synthesis Example 5, perfluoro(3-dibutylaminopropionic acid) barium], the “solubility of the present compound in water” value is given as 0.04 g/100 g-H2O.

Values taken from US10208210B2, “Hydrophilic oil repellent and production method of same, surface coating material, coating film, resin composition, oil-water separation filter material, and porous body” (MITSUBISHI MATERIALS CORPORATION, priority 2014, dated 2019).
